Each structure is given as a SMILES string.

One may read the IC50 as the concentration that gives 50% inhibition.

The target in the experiment is T1, human full-length MKNK1 (Homo sapiens, UniProt Q9BUB5, T385D).
T1 construct: GST (N); purchased Carna Biosciences 02-145; host or cells: insect cells (baculovirus expression system)
T1 sequence (Q9BUB5 1-424 isoform Q9BUB5-2 T344D): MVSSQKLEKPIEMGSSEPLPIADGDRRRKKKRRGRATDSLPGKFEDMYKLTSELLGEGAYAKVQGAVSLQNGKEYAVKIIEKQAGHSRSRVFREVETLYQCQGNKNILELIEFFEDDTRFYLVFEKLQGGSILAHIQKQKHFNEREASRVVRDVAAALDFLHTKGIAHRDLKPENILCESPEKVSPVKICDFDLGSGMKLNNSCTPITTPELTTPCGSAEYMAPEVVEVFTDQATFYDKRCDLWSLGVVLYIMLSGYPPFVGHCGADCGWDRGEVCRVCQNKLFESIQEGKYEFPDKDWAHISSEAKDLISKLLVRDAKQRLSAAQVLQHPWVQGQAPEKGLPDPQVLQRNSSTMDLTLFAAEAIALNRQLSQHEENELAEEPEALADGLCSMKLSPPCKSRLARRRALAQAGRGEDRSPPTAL
The experiment can be described thus: MKNK1 kinase high ATP assay (TR-FRET). The class given is biochemical. The following applies: 2 mM ATP, after preincubation with MKNK1; read-out: MKNK1 IC50 (MKNK1 high ATP). Here is the method:
MKNK1-inhibitory activity at high ATP of compounds of the present invention after their preincubation with MKNK1 was quantified employing the TR-FRET-based MKNK1 high ATP assay as described in the following paragraphs.
As substrate for the kinase reaction the biotinylated peptide biotin-Ahx-[…] (C-terminus in amide form) was used, which can be purchased e.g. from the company Biosyntan (Berlin-Buch, Germany).
For the assay 50 nL of a 100 fold concentrated solution of the test compound in DMSO was pipetted into a black low volume 384 well microtiter plate (Greiner Bio-One, Frickenhausen, Germany), 2 μL of a solution of MKNK1 in aqueous assay buffer [50 mM HEPES pH 7.5, 5 mM MgCl2, 1.0 mM dithiothreitol, 0.005% (v/v) Nonidet-P40 (Sigma)] was added and the mixture was incubated for 15 min at 22° C. to allow pre-binding of the test compounds to the enzyme before the start of the kinase reaction. Then the kinase reaction was started by the addition of 3 μL of a solution of adenosine-tri-phosphate (ATP, 3.3 mM=>final conc. in the 5 μL assay volume is 2 mM) and substrate (0.1 μM=>final conc. in the 5 μL assay volume is 0.06 μM) in assay buffer and the resulting mixture was incubated for a reaction time of 30 min at 22° C. The concentration of MKNK1 was adjusted depending of the activity of the enzyme lot and was chosen appropriate to have the assay in the linear range, typical concentrations were in the range of 0.003 μg/mL. The reaction was stopped by the addition of 5 μL of a solution of TR-FRET detection reagents (5 nM streptavidine-XL665 [Cisbio Bioassays, Codolet, France] and 1 nM anti-ribosomal protein S6 (pSer236)-antibody from Invitrogen [#44921G] and 1 nM LANCE EU-W1024 Labeled ProteinG [Perkin-Elmer, product no. AD0071]) in an aqueous EDTA-solution (100 mM EDTA, 0.1% (w/v) bovine serum albumin in 50 mM HEPES pH 7.5).
The resulting mixture was incubated for 1 h at 22° C. to allow the formation of complex between the phosphorylated biotinylated peptide and the detection reagents. Subsequently the amount of phosphorylated substrate was evaluated by measurement of the resonance energy transfer from the Eu-chelate to the streptavidine-XL. Therefore, the fluorescence emissions at 620 nm and 665 nm after excitation at 350 nm were measured in a TR-FRET reader, e.g. a Rubystar (BMG Labtechnologies, Offenburg, Germany) or a Viewlux (Perkin-Elmer). The ratio of the emissions at 665 nm and at 622 nm was taken as the measure for the amount of phosphorylated substrate.
A general note: In TR-FRET formats the signal depends on donor and acceptor labels being close together.
With `O=C(NCCN1CCCC1)C1CCc2c(sc3ncnc(Nc4ccc5[nH]ncc5c4)c23)C1` (racemic) [Example 98, (RS)-4-(1H-indazol-5-ylamino)-N-[2-(pyrrolidin-1-yl)ethyl]-5,6,7,8-tetrahydro[1]benzothieno[2,3-d]pyrimidine-7-carboxamide], the IC50 worked out at 8.1 nM.

On to `O=C(Nc1ccccn1)C1CCc2c(sc3ncnc(Nc4ccc5[nH]ncc5c4)c23)C1` (racemic) [Example 99, (RS)-4-(1H-indazol-5-ylamino)-N-(pyridin-2-yl)-5,6,7,8-tetrahydro[1]benzothieno[2,3-d]pyrimidine-7-carboxamide], for which the IC50 is 27.7 nM.

`O=C(Nc1cccnc1)C1CCc2c(sc3ncnc(Nc4ccc5[nH]ncc5c4)c23)C1` (racemic) [Example 100, (RS)-4-(1H-indazol-5-ylamino)-N-(pyridin-3-yl)-5,6,7,8-tetrahydro[1]benzothieno[2,3-d]pyrimidine-7-carboxamide]: the IC50 came out at 7.5 nM.

As for `CN(Cc1ccccc1)C(=O)C1CCc2c(sc3ncnc(Nc4ccc5[nH]ncc5c4)c23)C1` (racemic) [Example 101, (RS)-N-benzyl-4-(1H-indazol-5-ylamino)-N-methyl-5,6,7,8-tetrahydro[1]benzothieno[2,3-d]pyrimidine-7-carboxamide], the IC50 amounted to 4.7 nM.

`CC(C)(C)NC(=O)C1CCc2c(sc3ncnc(Nc4ccc5[nH]ncc5c4)c23)C1` (racemic) [Example 102, (RS)-N-tert-butyl-4-(1H-indazol-5-ylamino)-5,6,7,8-tetrahydro[1]benzothieno[2,3-d]pyrimidine-7-carboxamide]: the IC50 was 14.9 nM.

Take `CCOC(=O)N1CCN(C(=O)C2CCc3c(sc4ncnc(Nc5ccc6[nH]ncc6c5)c34)C2)CC1` (racemic) [Example 103, (RS)-ethyl4-{[4-(1H-indazol-5-ylamino)-5,6,7,8-tetrahydro[1]benzothieno[2,3-d]pyrimidin-7-yl]carbonyl}piperazine-1-carboxylate]: the IC50 is 16.4 nM.

For the compound `CC1CCCN(C(=O)C2CCc3c(sc4ncnc(Nc5ccc6[nH]ncc6c5)c34)C2)C1` (racemic) [Example 104, (RS)-[4-(1H-indazol-5-ylamino)-5,6,7,8-tetrahydro[1]benzothieno[2,3-d]pyrimidin-7-yl](3-methylpiperidin-1-yl)methanone], the IC50 turned out to be 7.4 nM.

`CC1CCN(C(=O)C2CCc3c(sc4ncnc(Nc5ccc6[nH]ncc6c5)c34)C2)CC1` (racemic) [Example 105, (RS)-[4-(1H-indazol-5-ylamino)-5,6,7,8-tetrahydro[1]benzothieno[2,3-d]pyrimidin-7-yl](4-methylpiperidin-1-yl)methanone]: the IC50 worked out at 16.8 nM.

In the case of `O=C(C1CCc2c(sc3ncnc(Nc4ccc5[nH]ncc5c4)c23)C1)N1CCN(c2ccccc2)CC1` (racemic) [Example 106, (RS)-[4-(1H-indazol-5-ylamino)-5,6,7,8-tetrahydro[1]benzothieno[2,3-d]pyrimidin-7-yl](4-phenylpiperazin-1-yl)methanone], the half-maximal inhibitory concentration (IC50) was found to be 14.5 nM.

For `COCCN(CCOC)C(=O)C1CCc2c(sc3ncnc(Nc4ccc5[nH]ncc5c4)c23)C1` (racemic) [Example 107, (RS)-4-(1H-indazol-5-ylamino)-N,N-bis(2-methoxyethyl)-5,6,7,8-tetrahydro[1]benzothieno[2,3-d]pyrimidine-7-carboxamide], the IC50 is 8.1 nM.

`O=C(C1CCc2c(sc3ncnc(Nc4ccc5[nH]ncc5c4)c23)C1)N1CCCC(O)C1` (racemic) [Example 108, (RS)-(3-hydroxypiperidin-1-yl)[4-(1H-indazol-5-ylamino)-5,6,7,8-tetrahydro[1]benzothieno[2,3-d]pyrimidin-7-yl]methanone]: the IC50 worked out at 12 nM.

`CCN(Cc1ccncc1)C(=O)C1CCc2c(sc3ncnc(Nc4ccc5[nH]ncc5c4)c23)C1` (racemic) [Example 109, (RS)-N-ethyl-4-(1H-indazol-5-ylamino)-N-(pyridin-4-ylmethyl)-5,6,7,8-tetrahydro[1]benzothieno[2,3-d]pyrimidine-7-carboxamide]: the IC50 came out at 8 nM.

For `Cc1ccccc1N1CCN(C(=O)C2CCc3c(sc4ncnc(Nc5ccc6[nH]ncc6c5)c34)C2)CC1` (racemic) [Example 110, (R)S-[4-(1H-indazol-5-ylamino)-5,6,7,8-tetrahydro[1]benzothieno[2,3-d]pyrimidin-7-yl][4-(2-methylphenyl)piperazin-1-yl]methanone], the IC50 came to 132 nM.

Take `Cc1cccc(N2CCN(C(=O)C3CCc4c(sc5ncnc(Nc6ccc7[nH]ncc7c6)c45)C3)CC2)c1` (racemic) [Example 111, (RS)-[4-(1H-indazol-5-ylamino)-5,6,7,8-tetrahydro[1]benzothieno[2,3-d]pyrimidin-7-yl][4-(3-methylphenyl)piperazin-1-yl]methanone]: the 50% inhibitory concentration (IC50) came to 24.7 nM.

For the compound `O=C(C1CCc2c(sc3ncnc(Nc4ccc5[nH]ncc5c4)c23)C1)N1CCN(c2ccncc2)CC1` (racemic) [Example 112, (RS)-[4-(1H-indazol-5-ylamino)-5,6,7,8-tetrahydro[1]benzothieno[2,3-d]pyrimidin-7-yl][4-(pyridin-4-yl)piperazin-1-yl]methanone], the IC50 came to 9.4 nM.

In the case of `CC(C)(C)CNC(=O)C1CCc2c(sc3ncnc(Nc4ccc5[nH]ncc5c4)c23)C1` (racemic) [Example 113, (RS)-N-(2,2-dimethylpropyl)-4-(1H-indazol-5-ylamino)-5,6,7,8-tetrahydro[1]benzothieno[2,3-d]pyrimidine-7-carboxamide], the IC50 was 20.4 nM.

As for `O=C(C1CCc2c(sc3ncnc(Nc4ccc5[nH]ncc5c4)c23)C1)N1CCN(c2cnccn2)CC1` (racemic) [Example 114, (RS)-[4-(1H-indazol-5-ylamino)-5,6,7,8-tetrahydro[1]benzothieno[2,3-d]pyrimidin-7-yl][4-(pyrazin-2-yl)piperazin-1-yl]methanone], the IC50 was 12.5 nM.

As for `N#Cc1ccccc1N1CCN(C(=O)C2CCc3c(sc4ncnc(Nc5ccc6[nH]ncc6c5)c34)C2)CC1` (racemic) [Example 115, (RS)-2-(4-{[4-(1H-indazol-5-ylamino)-5,6,7,8-tetrahydro[1]benzothieno[2,3-d]pyrimidin-7-yl]carbonyl}piperazin-1-yl)benzonitrile], the IC50 came to 15.3 nM.

On to `O=C(NCCc1cccs1)C1CCc2c(sc3ncnc(Nc4ccc5[nH]ncc5c4)c23)C1` (racemic) [Example 116, (RS)-4-(1H-indazol-5-ylamino)-N-[2-(thiophen-2-yl)ethyl]-5,6,7,8-tetrahydro[1]benzothieno[2,3-d]pyrimidine-7-carboxamide], for which the IC50 amounted to 5.8 nM.

With `Cn1nccc1NC(=O)C1CCc2c(sc3ncnc(Nc4ccc5[nH]ncc5c4)c23)C1` (racemic) [Example 117, (RS)-4-(1H-indazol-5-ylamino)-N-(1-methyl-1H-pyrazol-5-yl)-5,6,7,8-tetrahydro[1]benzothieno[2,3-d]pyrimidine-7-carboxamide], the IC50 is 11.2 nM.

As for `CN1CCCN(C(=O)C2CCc3c(sc4ncnc(Nc5ccc6[nH]ncc6c5)c34)C2)CC1` (racemic) [Example 118, (RS)-[4-(1H-indazol-5-ylamino)-5,6,7,8-tetrahydro[1]benzothieno[2,3-d]pyrimidin-7-yl](4-methyl-1,4-diazepan-1-yl)methanone], the IC50 amounted to 13.2 nM.

Regarding `CCN1CCN(C(=O)C2CCc3c(sc4ncnc(Nc5ccc6[nH]ncc6c5)c34)C2)CC1` (racemic) [Example 119, (RS)-(4-ethylpiperazin-1-yl)[4-(1H-indazol-5-ylamino)-5,6,7,8-tetrahydro[1]benzothieno[2,3-d]pyrimidin-7-yl]methanone], the IC50 amounted to 15.9 nM.

For `CN(C)C(=O)CN(C)C(=O)C1CCc2c(sc3ncnc(Nc4ccc5[nH]ncc5c4)c23)C1` (racemic) [Example 120, (RS)-N-[2-(dimethylamino)-2-oxoethyl]-4-(1H-indazol-5-ylamino)-N-methyl-5,6,7,8-tetrahydro[1]benzothieno[2,3-d]pyrimidine-7-carboxamide], the IC50 was determined as 8.3 nM.

For the compound `NS(=O)(=O)c1ccc(CNC(=O)C2CCc3c(sc4ncnc(Nc5ccc6[nH]ncc6c5)c34)C2)cc1` (racemic) [Example 121, (RS)-4-(1H-indazol-5-ylamino)-N-(4-sulfamoylbenzyl)-5,6,7,8-tetrahydro[1]benzothieno[2,3-d]pyrimidine-7-carboxamide], the IC50 came to 4 nM.
